Here are results for 4 molecules from patent US10653710B2, “Combination therapy for treating malignancies” (Agios Pharmaceuticals, Inc., priority 2015, dated 2020).

≈ marks a conversion by molar mass, not a printed value. Read-outs that look alike come from different tables or passages of the source.

The subject of data set [1] is TF1-IDH1^R132H cells. Description: EPO differentiation assay, cell pellet color evaluation (hemoglobinization assay). Type of data set: cell-based. The note with it: concurrent schedule; COMPOUND 2 0.2 and 1.0 μM; AZA up to 1 uM. The source says:
(§1) EPO differentiation assay in TF1-IDH1^R132H cells. […] Endpoints assessed assays were: cell pellet color evaluation (hemoglobinization assay); HBG and KLF1 RNA by RT-qPCR; CD235a-positive cell populations by flow cytometry (differentiation markers); and Growth and apoptosis by IncuCyte Zoom real-time imaging.

Data set [2] deals with TF1-IDH1^R132H cells. The data set is described as follows: HBG and KLF1 RNA by RT-qPCR in EPO differentiation assay. It counts as cell-based. The note with it: concurrent schedule; for increase in HBG gene expression: COMPOUND 2 0.2 μM, AZA 1.0 μM, single agents or combined. As for the experimental part: EPO differentiation assay in TF1-IDH1^R132H cells. […] Cells were treated with vehicle, AZA alone, COMPOUND 2 alone, or the combination of AZA+COMPOUND 2. In the sequential schedule, cells were pre-treated with AZA for three days before addition of COMPOUND 2. In the concurrent schedule, cells were co-treated with AZA and COMPOUND 2 throughout the assay. Endpoints assessed assays were: cell pellet color evaluation (hemoglobinization assay); HBG and KLF1 RNA by RT-qPCR; CD235a-positive cell populations by flow cytometry (differentiation markers); and Growth and apoptosis by IncuCyte Zoom real-time imaging.
Cells were treated with vehicle, AZA alone, COMPOUND 2 alone, or the combination of AZA+COMPOUND 2. In the sequential schedule, cells were pre-treated with AZA for three days before addition of COMPOUND 2. In the concurrent schedule, cells were co-treated with AZA and COMPOUND 2 throughout the assay.
(In qPCR the cycle at which signal appears reflects the starting amount.)

Data set [3] concerns TF-1-IDH1^R132H cells. The data set is described as follows: growth and apoptosis by IncuCyte Zoom real-time imaging. Type of data set: cell-based. The note with it: AZA 1 μM; for cell growth compared to the DMSO control: COMPOUND 2 0.1, 0.3 or 1.0 μM; for induction of apoptosis: late time points (>60 hrs), combination with 0.1 and 0.3 μM COMPOUND 2. As for the experimental part: as §1
In order to track cell growth and death in real-time, a real-time analysis was performed using IncuCyte Zoom (FIG. 4).

The conditions of data set [4]: cited from earlier work.
The subject of data set [5] is TF1-IDH1^R132H cells. Description: CD235a-positive cell populations by flow cytometry in EPO differentiation assay. Type of data set: cell-based. The note with it: concurrent schedule.
From the text: as §1
A general note: A flow cytometer gives signals particle by particle.

Data set [6] is described as follows: solubility in fasted state simulated intestinal fluid (FASSIF). It counts as physicochemical. The note with it: pH 6.1, fassif, thermodynamic from solid, pH of 6.1 at 4 hours. Here is the method:
In comparison, amorphous spray-dried dispersions have a solubility of about 0.05 mg/mL to about 0.50 mg/mL in FASSIF at 3 hours.

On to `Nc1ncn([C@@H]2O[C@H](CO)[C@@H](O)[C@H]2O)c(=O)n1` [AZA, 4-amino-1-β-D-ribofuranozyl-s-triazin-2(1H)-one], for which the “hemoglobinization (red color of cell pellets)” value in data set [1] was “little or no effect on cell pellet color”. Further, in data set [2], the “increase in HBG gene expression” value amounted to 1 fold. In addition, the “cell growth compared to the DMSO control” value in data set [3] is “slowed growth”. In data set [3], the induction of apoptosis entry was “increased apoptosis above the DMSO control”. Further, the solubility (in general, the dissolved amount per volume that the medium holds) is listed as “insoluble” in data set [4] (in acetone, ethanol and methyl ketone); “soluble” in data set [4] (in dimethylsulfoxide (DMSO)); “slightly soluble” in data set [4] (in ethanol/water (50/50), propylene glycol and polyethylene glycol); “sparingly soluble” in data set [4] (in water, water-saturated octanol, 5% dextrose in water, N-methyl-2-pyrrolidone, normal saline and 5% Tween 80 in water).
Regarding `N#Cc1ccnc(N2C(=O)CC[C@H]2C(=O)N(c2cncc(F)c2)[C@H](C(=O)NC2CC(F)(F)C2)c2ccccc2Cl)c1` [COMPOUND 2, (S)-N-((S)-1-(2-chlorophenyl)-2-((3,3-difluorocyclobutyl)amino)-2-oxoethyl)-1-(4-cyanopyridin-2-yl)-N-(5-fluoropyridin-3-yl)-5-oxopyrrolidine-2-carboxamide], the “hemoglobinization (red color of cell pellets)” value in data set [1] is on record as “increased hemoglobin production in a dose-dependent manner”. The “erythroid differentiation marker CD235a (Glycophorin A) expression” value in data set [5] was “increased erythroid differentiation marker CD235a”. Further, in data set [2], the “RNA expression of differentiation marker KLF1” value is given as “Dose-dependent increases” and the “increase in HBG gene expression” value was determined as 25 fold. The “RNA expression of differentiation marker HBG” value in data set [2] (combination with COMPOUND 2 0.2 μM) is reported as “dose-dependent increases”. Further, in data set [3], the “cell growth compared to the DMSO control” value is listed as “slightly promoted cell growth” and the induction of apoptosis entry is listed as “no effect on induction of apoptosis”.
On to `Nc1ncn([C@H]2C[C@H](O)[C@@H](CO)O2)c(=O)n1` [Decitabine, 4-amino-1-(2-deoxy-β-D-erythro-pentofuranosyl)-1,3,5-triazin-2(1H)one], for which the solubility result is “soluble” in data set [4] (in dimethylsulfoxide (DMSO)); “slightly soluble” in data set [4] (in ethanol/water (50/50), methanol/water (50/50) and methanol); “sparingly soluble” in data set [4] (in water).
`N#Cc1ccnc(N2C(=O)CC[C@H]2C(=O)N(c2cncc(F)c2)[C@H](C(=O)NC2CC(F)(F)C2)c2ccccc2Cl)c1` [Form 2, (S)-N-((S)-1-(2-chlorophenyl)-2-((3,3-difluorocyclobutyl)amino)-2-oxoethyl)-1-(4-cyanopyridin-2-yl)-N-(5-fluoropyridin-3-yl)-5-oxopyrrolidine-2-carboxamide] registered a solubility at 4 h in data set [6] of approximately 18 µg/mL (≈ 30.9 µM).
